Laboratory results: PubChem BioAssay (NCI)
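Assay format: 96-well plates, 48-hour exposure. TGI marks complete inhibition of growth.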

Tests used:
Test in all cases: DTP human tumour cell line panel, 48 h
A549 NSCLC = system: A549 NSCLC
MCF7 breast = system: MCF7 breast
HCT-15 colon = system: HCT-15 colon
SR leukemia = system: SR leukemia
UACC-62 melanoma = system: UACC-62 melanoma
T-47D breast = system: T-47D breast
RPMI-8226 leukemia = system: RPMI-8226 leukemia
HT29 colon = system: HT29 colon
TK-10 renal = system: TK-10 renal
MALME-3M melanoma = system: MALME-3M melanoma
MDA-N = system: MDA-N
SNB-75 CNS = system: SNB-75 CNS
EKVX NSCLC = system: EKVX NSCLC
MOLT-4 leukemia = system: MOLT-4 leukemia
HOP-92 NSCLC = system: HOP-92 NSCLC
A498 renal = system: A498 renal
SK-MEL-2 melanoma = system: SK-MEL-2 melanoma
MDA-MB-231 breast = system: MDA-MB-231 breast
CAKI-1 renal = system: CAKI-1 renal
LOX IMVI melanoma = system: LOX IMVI melanoma
SK-MEL-28 melanoma = system: SK-MEL-28 melanoma
OVCAR-8 ovarian = system: OVCAR-8 ovarian
SF-268 CNS = system: SF-268 CNS
COLO 205 colon = system: COLO 205 colon
UACC-257 melanoma = system: UACC-257 melanoma
BT-549 breast = system: BT-549 breast
NCI-H460 lung = system: NCI-H460 lung
SF-539 CNS = system: SF-539 CNS
RXF 393 renal = system: RXF 393 renal
NCI-H23 lung = system: NCI-H23 lung
DU-145 prostate = system: DU-145 prostate
SK-OV-3 ovarian = system: SK-OV-3 ovarian
SNB-19 CNS = system: SNB-19 CNS
MDA-MB-435 = system: MDA-MB-435
NCI-H226 lung = system: NCI-H226 lung
SW-620 colon = system: SW-620 colon
SK-MEL-5 melanoma = system: SK-MEL-5 melanoma
IGROV1 ovarian = system: IGROV1 ovarian
786-0 renal = system: 786-0 renal
M14 melanoma = system: M14 melanoma
HCC-2998 colon = system: HCC-2998 colon
NCI-H522 lung = system: NCI-H522 lung
HL-60(TB) leukemia = system: HL-60(TB) leukemia
SF-295 CNS = system: SF-295 CNS
SN12C renal = system: SN12C renal
ACHN renal = system: ACHN renal
OVCAR-3 ovarian = system: OVCAR-3 ovarian
UO-31 renal = system: UO-31 renal
OVCAR-5 ovarian = system: OVCAR-5 ovarian
HCT-116 colon = system: HCT-116 colon
PC-3 prostate = system: PC-3 prostate
KM12 colon = system: KM12 colon
K-562 leukemia = system: K-562 leukemia
NCI/ADR-RES ovarian = system: NCI/ADR-RES ovarian
HOP-62 NSCLC = system: HOP-62 NSCLC
OVCAR-4 ovarian = system: OVCAR-4 ovarian
U251 CNS = system: U251 CNS
HS 578T breast = system: HS 578T breast
CCRF-CEM leukemia = system: CCRF-CEM leukemia

O=C(/C=C1\C[C@H]2C=Nc3ccccc3C(=O)N2C1)NCCCNC(=O)/C=C1\C[C@H]2C=Nc3ccccc3C(=O)N2C1
TGI (A549 NSCLC): 46.5 µM | TGI (MCF7 breast): 42 µM | TGI (HCT-15 colon): 36.9 µM | TGI (SR leukemia): 4.62 µM | TGI (UACC-62 melanoma): 29.3 µM | TGI (T-47D breast): 60.1 µM | TGI (RPMI-8226 leukemia): 40 µM | TGI (HT29 colon): 32.2 µM | TGI (TK-10 renal): 34 µM | TGI (MALME-3M melanoma): 30 µM | TGI (MDA-N): 32.3 µM | TGI (SNB-75 CNS): 31.1 µM | TGI (EKVX NSCLC): 38 µM | TGI (MOLT-4 leukemia): 7.37 µM | TGI (HOP-92 NSCLC): 35.4 µM | TGI (A498 renal): 31.5 µM | TGI (SK-MEL-2 melanoma): 33.6 µM | TGI (MDA-MB-231 breast): 29.7 µM | TGI (CAKI-1 renal): 27.2 µM | TGI (LOX IMVI melanoma): 22.6 µM | TGI (SK-MEL-28 melanoma): 35.5 µM | TGI (OVCAR-8 ovarian): 33.2 µM | TGI (SF-268 CNS): 30.8 µM | TGI (COLO 205 colon): 26.2 µM | TGI (UACC-257 melanoma): 30.3 µM | TGI (BT-549 breast): 30.3 µM | TGI (NCI-H460 lung): 36.2 µM | TGI (SF-539 CNS): 34.9 µM | TGI (RXF 393 renal): 27.9 µM | TGI (NCI-H23 lung): 30.4 µM | TGI (DU-145 prostate): 35.9 µM | TGI (SK-OV-3 ovarian): 36.4 µM | TGI (SNB-19 CNS): 31.4 µM | TGI (MDA-MB-435): 34.3 µM | TGI (NCI-H226 lung): 36.3 µM | TGI (SW-620 colon): 28.3 µM | TGI (SK-MEL-5 melanoma): 30.2 µM | TGI (IGROV1 ovarian): 31 µM | TGI (786-0 renal): 10.9 µM | TGI (M14 melanoma): 28 µM | TGI (HCC-2998 colon): 35.1 µM | TGI (NCI-H522 lung): 4.21 µM | TGI (HL-60(TB) leukemia): 32 µM | TGI (SF-295 CNS): 36.9 µM | TGI (SN12C renal): 37.9 µM | TGI (ACHN renal): 28.1 µM | TGI (OVCAR-3 ovarian): 31.3 µM | TGI (UO-31 renal): 28.4 µM | TGI (OVCAR-5 ovarian): 36.2 µM | TGI (HCT-116 colon): 30.5 µM | TGI (PC-3 prostate): 31.4 µM | TGI (KM12 colon): 31.2 µM | TGI (K-562 leukemia): 29.4 µM | TGI (NCI/ADR-RES ovarian): 48.4 µM | TGI (HOP-62 NSCLC): 35.8 µM | TGI (OVCAR-4 ovarian): 35.6 µM | TGI (U251 CNS): 26.6 µM | TGI (HS 578T breast): > 100 µM

CN(C)CCNc1ccc2c(=O)n(CCN(C)C)c(=O)n3c4ccccc4c(=O)c1c23
TGI (A549 NSCLC): > 40.3 µM | TGI (MCF7 breast): 1.78 µM | TGI (SR leukemia): 0.0298 µM | TGI (T-47D breast): 3.89 µM | TGI (RPMI-8226 leukemia): 0.0616 µM | TGI (HT29 colon): 1.68 µM | TGI (TK-10 renal): 4.31 µM | TGI (MALME-3M melanoma): 1.93 µM | TGI (MDA-N): 0.71 µM | TGI (SNB-75 CNS): 0.403 µM | TGI (EKVX NSCLC): 2.56 µM | TGI (MOLT-4 leukemia): < 0.0201 µM | TGI (HOP-92 NSCLC): 0.462 µM | TGI (A498 renal): 0.554 µM | TGI (SK-MEL-2 melanoma): 1.7 µM | TGI (MDA-MB-231 breast): 0.682 µM | TGI (CAKI-1 renal): 2.05 µM | TGI (LOX IMVI melanoma): 1.48 µM | TGI (SK-MEL-28 melanoma): 5.26 µM | TGI (OVCAR-8 ovarian): 8.78 µM | TGI (SF-268 CNS): 0.482 µM | TGI (COLO 205 colon): 0.671 µM | TGI (UACC-257 melanoma): 1.62 µM | TGI (BT-549 breast): 5.7 µM | TGI (NCI-H460 lung): 0.364 µM | TGI (SF-539 CNS): 0.272 µM | TGI (RXF 393 renal): 0.688 µM | TGI (NCI-H23 lung): 0.565 µM | TGI (DU-145 prostate): 0.179 µM | TGI (SK-OV-3 ovarian): 6.2 µM | TGI (SNB-19 CNS): 7.12 µM | TGI (MDA-MB-435): 0.537 µM | TGI (NCI-H226 lung): 1.58 µM | TGI (SW-620 colon): 3.98 µM | TGI (SK-MEL-5 melanoma): 0.163 µM | TGI (IGROV1 ovarian): 0.982 µM | TGI (786-0 renal): 1.35 µM | TGI (M14 melanoma): 1.81 µM | TGI (HCC-2998 colon): 0.473 µM | TGI (NCI-H522 lung): 0.58 µM | TGI (HL-60(TB) leukemia): 0.286 µM | TGI (SF-295 CNS): 0.516 µM | TGI (SN12C renal): 0.294 µM | TGI (OVCAR-3 ovarian): 2.81 µM | TGI (UO-31 renal): 1.8 µM | TGI (OVCAR-5 ovarian): 5.03 µM | TGI (HCT-116 colon): 0.615 µM | TGI (PC-3 prostate): 7.09 µM | TGI (KM12 colon): 1.14 µM | TGI (NCI/ADR-RES ovarian): 5.5 µM | TGI (HOP-62 NSCLC): 0.265 µM | TGI (U251 CNS): 3.63 µM | TGI (HS 578T breast): 3.65 µM

Nc1cc2c(nc3c4ccccc4c(N)cc3[n+]2-c2cccc3ccccc23)c2ccccc12 (tested in a mixture with another compound)
TGI (A549 NSCLC): 13.3 µM | TGI (MCF7 breast): 3.79 µM | TGI (HCT-15 colon): 25.9 µM | TGI (SR leukemia): 3.56 µM | TGI (UACC-62 melanoma): 21.7 µM | TGI (T-47D breast): 16.1 µM | TGI (RPMI-8226 leukemia): 0.851 µM | TGI (HT29 colon): 10.9 µM | TGI (TK-10 renal): 4.55 µM | TGI (MALME-3M melanoma): 4.14 µM | TGI (MDA-N): 5.27 µM | TGI (SNB-75 CNS): 10.6 µM | TGI (EKVX NSCLC): 18.6 µM | TGI (MOLT-4 leukemia): 4.04 µM | TGI (HOP-92 NSCLC): 8.45 µM | TGI (A498 renal): 16.9 µM | TGI (SK-MEL-2 melanoma): 4.28 µM | TGI (MDA-MB-231 breast): 2.72 µM | TGI (CAKI-1 renal): 14.6 µM | TGI (LOX IMVI melanoma): 7.3 µM | TGI (SK-MEL-28 melanoma): 20 µM | TGI (OVCAR-8 ovarian): 12.8 µM | TGI (SF-268 CNS): 18.3 µM | TGI (COLO 205 colon): 7.14 µM | TGI (UACC-257 melanoma): 3.51 µM | TGI (BT-549 breast): 16.3 µM | TGI (NCI-H460 lung): 1.58 µM | TGI (SF-539 CNS): 23.8 µM | TGI (RXF 393 renal): 9.33 µM | TGI (NCI-H23 lung): 4.05 µM | TGI (DU-145 prostate): 15.1 µM | TGI (SK-OV-3 ovarian): 17.9 µM | TGI (SNB-19 CNS): 20.2 µM | TGI (MDA-MB-435): 3 µM | TGI (NCI-H226 lung): 28.7 µM | TGI (SW-620 colon): 9.18 µM | TGI (SK-MEL-5 melanoma): 6.17 µM | TGI (IGROV1 ovarian): 10.7 µM | TGI (786-0 renal): 4.22 µM | TGI (M14 melanoma): 6.61 µM | TGI (NCI-H522 lung): 7.77 µM | TGI (HL-60(TB) leukemia): 4.53 µM | TGI (CCRF-CEM leukemia): 1.31 µM | TGI (SF-295 CNS): 12.4 µM | TGI (SN12C renal): 13.8 µM | TGI (ACHN renal): 9.21 µM | TGI (OVCAR-3 ovarian): 4.56 µM | TGI (UO-31 renal): 15.2 µM | TGI (OVCAR-5 ovarian): 25.2 µM | TGI (HCT-116 colon): 10.7 µM | TGI (PC-3 prostate): 2.9 µM | TGI (KM12 colon): 9.87 µM | TGI (K-562 leukemia): 4.17 µM | TGI (NCI/ADR-RES ovarian): 22.2 µM | TGI (HOP-62 NSCLC): 17.2 µM | TGI (OVCAR-4 ovarian): 15.2 µM | TGI (U251 CNS): 2.61 µM | TGI (HS 578T breast): 12 µM
